Measured values published in patent US7157582B2, “Selective iGluR5 receptor antagonists” (Eli Lilly and Company, priority 1999, dated 2007).

Columns and labels:
[1] = tested on: dural protein extravasation; experiment: Animal model of dural protein extravasation (rat); format: in vivo; conditions: for Inhibition of Dural Protein Extravasation ID50: rat, i.v.
Protocol: (§1) The following animal model was employed to determine the ability of each of the panel of compounds to inhibit protein extravasation, an exemplary functional assay of the neuronal mechanism of migraine.
Harlan Sprague-Dawley rats (225–325 g) or guinea pigs from Charles River Laboratories (225–325 g) were anesthetized with sodium pentobarbital intraperitoneally (65 mg/kg or 45 mg/kg respectively) and placed in a stereotaxic frame (David Kopf Instruments) with the incisor bar set at −3.5 mm for rats or −4.0 mm for guinea pigs. Following a midline sagital scalp incision, two pairs of bilateral holes were drilled through the skull (6 mm posterially, 2.0 and 4.0 mm laterally in rats; 4 mm posteriorly and 3.2 and 5.2 mm laterally in guinea pigs, all coordinates referenced to bregma). Pairs of stainless steel stimulating electrodes, insulated except at the tips (Rhodes Medical Systems, Inc.), were lowered through the holes in both hemispheres to a depth of 9 mm (rats) or 10.5 mm (guinea pigs) from dura.
The femoral vein was exposed and a dose of the test compound was injected intravenously (i.v.) at a dosing volume of 1 ml/Kg or, in the alternative, test compound was administered orally (p.o) via gavage at a volume of 2.0 ml/Kg. Approximately 7 minutes post i.v. injection, a 50 mg/Kg dose of Evans Blue, a fluorescent dye, was also injected intravenously. The Evans Blue complexed with proteins in the blood and functioned as a marker for protein extravasation. Exactly 10 minutes post-injection of the test compound, the left trigeminal ganglion was stimulated for 3 minutes at a current intensity of 1.0 mA (5 Hz, 4 msec duration) with a Model 273 potentiostat/galvanostat (EG&G Princeton Applied Research).
Fifteen minutes following stimulation, the animals were killed and exsanguinated with 20 mL of saline. The top of the skull was removed to facilitate the collection of the dural membranes. […]
(§2) A fluorescence microscope (Zeiss) equipped with a grating monchromator and a spectrophotometer was used to quantify the amount of Evans Blue dye in each sample. An excitation wavelength of approximately 535 nm was utilized and the emission intensity at 600 nm was determined. […] This facilitated the computer-controlled movement of the stage with fluorescence measurements at 25 points ([…]) on each dural sample. The mean and standard deviation of the measurements were determined by the computer.
(§3) The extravasation induced by the electrical stimulation of the trigeminal ganglion was an ipsilateral effect (i.e. occurs only on the side of the dura in which the trigeminal ganglion was stimulated). […] The ratio of the amount of extravasation in the dura from the stimulated side, over the amount of extravasation in the unstimulated side, was calculated. […]

[2] = tested on: dural protein extravasation; experiment: Animal model of dural protein extravasation (guinea pig); format: in vivo; conditions: Gpig (guinea pig), i.v.
Protocol: as §1
Harlan Sprague-Dawley rats (225–325 g) or guinea pigs from Charles River Laboratories (225–325 g) were anesthetized with sodium pentobarbital intraperitoneally (65 mg/kg or 45 mg/kg respectively) and placed in a stereotaxic frame (David Kopf Instruments) with the incisor bar set at −3.5 mm for rats or −4.0 mm for guinea pigs. […]
as §2, §3

Row | SMILES | Inhibition of Dural Protein Extravasation ID50 [1] | Inhibition of Dural Protein Extravasation ID50 [2] | Inhibition of Dural Protein Extravasation ID100 ([1]; p.o., species not given) [µg/kg]
1 | O=C(O)[C@@H]1C[C@H]2C[C@@H](CCSc3nnn[nH]3)CC[C@H]2CN1 [Compound III] | .0053 (rat) ng/Kg |  | 
2 | O=C(O)c1ccc(C[C@H]2CC[C@H]3CN[C@H](C(=O)O)C[C@H]3C2)cc1 [Compound I, 3S,4aR,6S,8aR-6-(((4-carboxy)phenyl)methyl)-1,2,3,4,4a,5,6,7,8,8a-decahydroisoquinoline-3-carboxylic acid] | 6.5 (rat), ng/Kg | 4.0 (Gpig) ng/Kg | 
3 | O=C(O)[C@@H]1C[C@H]2C[C@@H](COCc3nnn[nH]3)CC[C@H]2CN1 [Compound II, 3S,4aR,6S,8aR-6-((((1H-Tetrazole-5-yl)methyl)oxy)methyl)-1,2,3,4,4a,5,6,7,8,8a-decahydroisoquinoline-3-carboxylic acid] | 15 (rat) ng/Kg |  | 
4 | CCOC(=O)[C@@H]1C[C@H]2C[C@@H](CN3CC(F)(F)C[C@H]3C(=O)OCC)CC[C@H]2CN1 [Compound IV(b), 3S,4aR,6S,8aR Ethyl 6-(((2S)-2-(Ethoxycarbonyl)-4,4-difluoropyrrolidinyl)methyl)-1,2,3,4,4a,5,6,7,8,8a-decahydroisoquinoline-3-carboxylate] |  |  | 1e-05
